The subject of experiment [1] is fibroblasts. The experiment is described as follows: Hyaluronate production by fibroblasts. In kind it is cell-based. On the set-up: key to FIBROBLAST EFFECTS Hyaluronate: NE = No Effect. To be noted: Table II summary.
For experiment [2], the system named is fibroblasts. The experiment is described as follows: HLA-DR, fibroblast effects. The experiment is classed as cell-based. On the set-up: key: NE = No Effect. To be noted: Table II summary.
In experiment [3] the test system is infant foreskin fibroblasts. Kind of experiment: Fibroblast chemotaxis in modified Boyden chambers (incl. checkerboard and deactivation studies). In kind it is cell-based, human. On the set-up: key to FIBROBLAST EFFECTS Migration: NE = No Effect. The procedure: Target cells used in in vitro chemotaxis assays were infant foreskin fibroblasts obtained by establishing monolayer cultures from explants of tissue. Cells were maintained in Eagle's minimum essential medium (MEM) supplemented with non-essential amino acids, antibiotics, 50 ug/ml ascorbic acid, and 9% fetal calf serum (FCS). Cells were passaged by trypsinization every 3-5 days.
Infant foreskin fibroblasts were harvested from monolayer culture by gentle trypsinization, washed twice in serum-free Eagles's MEM and adjusted to a final concentration of 250,000 cells/ml. The cell suspension (0.4 ml) was added to the upper compartments of blind well modified Boyden chemotaxis chambers. The peptides of the invention being assayed for chemotactic activity were solubilized in glycylglycine (0.015M) buffered NaCl (0.14M), pH 7.2, hereinafter referred to as GGBS, and diluted 50% with serum-free MEM. Test substances were added to the lower compartment of the chemotaxis chambers. Gelatin-treated polycarbonate filters (8 micron pore size) were interposed between the lowest compartment and the upper cell compartment. Loaded chambers were incubated at 37° C. in a humidified atmosphere containing 5% CO2 for 150 minutes. After incubation, the chambers were disassembled, the filters removed, stained with hematoxylin, and mounted on glass cover slips. Fibroblast chemotaxis was quantitated by counting the number of fibroblasts in 20 oil immersion fields (OIF) that migrated and adhered to the lower surface of each filter. Samples were tested in quadruplicate and results are expressed as mean number of fibroblasts per 20 OIF±standard error of the mean (SEM). Chemotaxis neutralization studies were performed by adding TGF-β1 or fibronectin to the upper cell compartment and testing for effects on fibroblast migration to the TGF-β peptides.
Zigmond-Hirsch checkerboard analysis (Zigmond & Hirsch, J. Exptl. Med. 137:387, 1972) was performed to determine whether the 7-mer peptide 368-374 (Val Tyr Tyr Val Gly Arg Lys) induced chemotaxis of fibroblasts, monocytes and neutrophils.
Deactivation studies were utilized to determine whether the peptides of the invention containing the 7-mer peptide amino acid sequence induced chemotaxis via cellular receptors and mechanisms utilized by intact TGF-β.

For experiment [4], the system named is human peripheral blood monocytes. The experiment is described as follows: Monocyte chemotaxis in modified Boyden chambers. On the set-up: key to Monocyte Migration: NE = No Effect. In kind it is cell-based. The source says: Human peripheral blood neutrophils and monocytes, isolated from whole blood using standard techniques may also be used in the chemotaxis assays, in a manner similar to infant foreskin fibroblasts, to measure the chemotactic activity of the peptides towards inflammatory cells. Such cells may also be maintained in supplemented MEM as above, to which 5-10% FCS may be added. When using neutrophils and monocytes, instead of fibroblasts, the polycarbonate filters used in the modified Boyden chambers had pore sizes of 2 and 3 microns, respectively. As above, all assays were carried out in quadruplicate.
The following 7-mer peptides (peptides 368-374, corresponding to amino acids 368-374 of human TGF-β1): VYYVGRK (SEQ ID NO. 1), LYYIGKT (SEQ ID NO. 2), LYYVGRT (SEQ ID NO. 3), IYYVGRN (SEQ ID NO. 4) and IYYVGRT (SEQ ID NO. 5) were synthesized by the Merrifield technique, purified by HPLC, and tested at different concentrations in the same assay for their ability to stimulate chemotaxis of human peripheral blood monocytes in vitro modified Boyden chambers.

Experiment [5] has as its system infant foreskin fibroblasts. The experiment is described as follows: Collagen production by fibroblasts (modified Peterofsky-Diegelman assay). The experiment is classed as cell-based, human. Set-up: key to FIBROBLAST EFFECTS Collagen: NE = No Effect. The procedure:
The peptides of the invention were also found to stimulate collagen production by fibroblasts. Collagen production by fibroblasts in response to the peptides of the present invention was measured utilizing a modified Peterofsky-Diegelman assay. The assay is used to determine whether the peptides of the invention stimulate or inhibit collagen production by fibroblasts.
Low passage (4-12 subpassages) infant foreskin fibroblasts were plated out at a density of 10^5 cells/well in Falcon 3008 multiwell plates in complete maintenance medium containing 10% FCS. After cells reached confluency (72 hr), the medium was changed daily for 3 days, each time being replaced with serum-free maintenance medium containing fresh ascorbic acid. Samples (50 μl) were added to triplicate wells containing 450 μl serum-free MEM supplemented with fresh ascorbic acid and [^3 H]-proline (sp. act. 20 Ci/mmole), but no non-essential amino acids. After an additional 24 hr of culture, supernatants were reacted with protease-free bacterial collagenase to digest all collagen. Similar aliquots of unreacted supernatants and bacterial collagenase-treated supernatants were precipitated with cold 10% trichloroacetic acid (TCA) and were centrifuged for 5 minutes in a Beckman microfuge. Aliquots of the supernatants, after TCA precipitated proteins were pelleted, were placed in vials containing Hydrofluor and then were counted in a scintillation counter. CPM from TCA precipitated supernatants not reacted with bacterial collagenase were subtracted from each culture. The resulting CPM was a reflection of the collagen produced by that culture.
A modified Peterofsky-Diegelmann assay was used to screen peptide samples for their ability to stimulate or inhibit collagen production. Low passage (4-12 subpassages) infant foreskin fibroblast were plated out at a density of 10^5 cells/well of Falcon 3008 multiwell plates in complete maintenance medium containing 10% FCS. After cells reached confluency (72 hr) the medium was changed daily for 3 days, each time being replaced with serum-free maintenance medium containing fresh ascorbic acid. Samples ([…]) were added to triplicate wells containing […] serum free MEM supplemented with fresh ascorbic acid and [^3 H]-proline (sp. act. 20 Ci/mmole), but no non-essential amino acids. After an additional 24 hours of culture, supernatants were reacted with protease-free bacterial collagenase to digest all collagen. Similar aliquots of unreacted supernatants and bacterial collagenase-treated supernatants were precipitated with cold 10% trichloroacetic acid (TCA) and were centrifuged for 5 minutes in a Beckman microfuge. Aliquots of the supernatants, after TCA precipitated proteins were pelleted, were placed in vials containing Hydrofluor and then were counted in a scintillation counter. CPM from TCA precipitated supernatants not reacted with bacterial collagenase were subtracted from each culture. The resulting CPM was a reflection of the collagen produced by that culture.
Collagen production was measured following administration of the various 7-mer peptides 368-374 (SEQ ID NOs. 1-5) to fibroblasts. Peptides […] (SEQ ID NO. 1), LYYIGKT (SEQ ID NO. 2), LYYVGRT (SEQ ID NO. 3), IYYVGRN (SEQ ID NO. 4) and IYYVGRT (SEQ ID NO. 5) were synthesized by the Merrifield technique, purified by HPLC, and tested at different concentrations in the same assay for their ability to stimulate production of collagen in confluent cultures of infant foreskin fibroblasts. Collagen production was measured by incorporation of [^3 H]proline into collagenase-sensitive protein. All samples were tested in triplicate, and values represent the mean of triplicate determinations. Data are expressed as "% stimulation" of collagen production relative to control production in cultures with plain culture medium only added. […]

The subject of experiment [6] is infant foreskin fibroblasts. The description is as above. The note with it: [3H]proline incorporation into collagenase-sensitive protein; listed as LYYIGRT. The experiment is classed as cell-based, human.
Where [7] appears, read: peptide in lower compartment of modified Boyden chamber.

For the substance “280-339: synthetic peptide 280-339, corresponds to the amino terminal portion of TGF-β1 monomer (ALDTNYCFSSTEKNCCVRQLYIDFRKDLGWKWIHEPKGYHANFCLGPCPYIWSLDTQYSK; printed: Ala Leu Asp Thr Asn Tyr Cys Phe Ser Ser Thr Glu Lys Asn Cys Cys Val Arg Gln Leu Tyr Ile Asp Phe Arg Lys Asp Leu Gly Trp Lys Trp Ile His Glu Pro Lys Gly Tyr His Ala Asn Phe Cys Leu Gly Pro Cys Pro Tyr Ile Trp Ser Leu Asp Thr Gln Tyr Ser Lys)”, the “FIBROBLAST EFFECTS Hyaluronate” value in experiment [1] was “NE”. In experiment [2], the “FIBROBLAST EFFECTS HLA-DR” value is on record as “NE”. For the same substance, the “FIBROBLAST EFFECTS Migration” value in experiment [3] (Table II summary) is “NE”. In experiment [4] (Table II summary), the “Monocyte Migration” value was “NE”. Further, in experiment [5] (Table II summary), the “FIBROBLAST EFFECTS Collagen” value is recorded as “NE”.
LYYIGKT [7-mer peptide 368-374 homolog]: the entries for the “collagen production by fibroblasts (in words)” value in experiment [6] and in experiment [5] ([3H]proline incorporation into collagenase-sensitive protein) were “stimulated collagen production” and “stimulated collagen production to some degree”, respectively. Besides, in experiment [3] (setting [7]), the “fibroblast chemotaxis / migration (in words)” value is on record as “induced fibroblast chemotaxis at all of the concentration tested”. Moreover, the “monocyte chemotaxis / migration (in words)” value in experiment [4] (setting [7]) was “induced monocyte chemotaxis at all of the concentrations tested”.

(Values after patent US5824647A, “Chemotactic wound healing peptides” (priority 1995, dated 1998).)
